In patent US12473289B2, “Heterocyclic compounds as delta-5 desaturase inhibitors and methods of use” (Amgen Inc., priority 2019, dated 2025):
Each block holds one molecule with its values, some of them ahead of it.

How the values were obtained:
Delta-5-Desaturase (D5D) [1] = biological target: Delta-5-Desaturase (D5D) (Homo sapiens (Human), UniProt O60427); test: In vitro measurement of Delta-5-Desaturase inhibitory activity using DGLA-CoA and Arachidonyl-CoA mass spectrometric assays; type: biochemical; conditions: membrane preparations of D5D-overexpressing HEK293 6E cells; averaged over at least two independent runs
Chain of Delta-5-Desaturase (D5D) (Homo sapiens (Human), UniProt O60427) (O60427 whole entry, species assumed): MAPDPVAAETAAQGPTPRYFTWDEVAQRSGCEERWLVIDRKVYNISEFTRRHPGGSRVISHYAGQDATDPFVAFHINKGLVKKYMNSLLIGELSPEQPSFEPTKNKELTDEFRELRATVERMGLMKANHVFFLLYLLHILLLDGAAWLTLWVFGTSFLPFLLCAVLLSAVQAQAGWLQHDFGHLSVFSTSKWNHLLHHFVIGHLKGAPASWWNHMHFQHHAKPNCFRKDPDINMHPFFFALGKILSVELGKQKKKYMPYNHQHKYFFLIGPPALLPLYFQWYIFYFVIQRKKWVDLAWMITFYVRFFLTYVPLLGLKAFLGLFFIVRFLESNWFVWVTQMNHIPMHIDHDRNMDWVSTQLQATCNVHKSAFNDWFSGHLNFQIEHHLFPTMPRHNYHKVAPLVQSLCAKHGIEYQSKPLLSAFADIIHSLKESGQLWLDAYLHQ
In short: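 DGLA-CoA and arachidonyl-CoA were read by RapidFire SPE triple-quad MS (negative mode, MRM) after a 1 h ambient-temperature reaction quenched with acetonitrile. Enzyme was D5D-overexpressing HEK293 6E membranes at 10 μg/mL final; substrate solution held 0.01 mM DGLA plus NADH, ATP and CoA. Inhibition was referenced to DMSO and no-enzyme wells; 4PL IC50.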

Delta-5-Desaturase (D5D) [2] = biological target: Delta-5-Desaturase (D5D) (Mus musculus (Mouse), UniProt Q920L1); test: In vivo measurement of Delta-5-Desaturase inhibitory activity (plasma AA/DGLA ratio in DIO mice); conditions: single oral dose 30 mg/kg, read-out: Average % D5D Inhibition expressed as Plasma Endogenous AA/DGLA Ratio
Chain of Delta-5-Desaturase (D5D) (Mus musculus (Mouse), UniProt Q920L1) (Q920L1 whole entry): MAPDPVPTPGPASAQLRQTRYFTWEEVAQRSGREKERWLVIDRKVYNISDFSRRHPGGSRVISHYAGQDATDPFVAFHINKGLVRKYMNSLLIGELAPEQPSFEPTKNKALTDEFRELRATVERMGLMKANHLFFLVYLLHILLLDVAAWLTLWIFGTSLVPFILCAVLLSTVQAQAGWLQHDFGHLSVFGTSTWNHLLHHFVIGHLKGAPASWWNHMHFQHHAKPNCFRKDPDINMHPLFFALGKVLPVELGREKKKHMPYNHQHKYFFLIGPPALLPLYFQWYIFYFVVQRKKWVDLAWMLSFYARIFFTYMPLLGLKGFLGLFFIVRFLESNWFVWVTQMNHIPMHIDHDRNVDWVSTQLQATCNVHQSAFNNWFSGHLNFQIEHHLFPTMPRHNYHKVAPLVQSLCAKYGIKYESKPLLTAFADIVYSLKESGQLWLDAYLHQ
Procedure: In vivo Measurement of Delta-5-Desaturase Inhibitory Activity
Diet-induced obese (DIO; Jackson Laboratories strain #3800050) mice were used to screen for pharmacodynamic (PD) activity of test compounds. Generally, 14 to 24 week old DIO mice, were administered test compounds formulated in the vehicle of 2% hydroxypropyl methylcellulose (HPMC) and 1% Tween80. Animals were dosed on body weight by oral gavage with a single dose (30 mg/kg) for PD studies. Necropsy included plasma collection for PUFA analysis. 10 μl of plasma or standards diluted in surrogate matrix (65 g/l bovine serum albumin in Dulbecco's phosphate-buffered saline) were mixed with 10 μl of an internal standard (100 μM alpha-linolenic acid-d14 (ALA-d14, Cayman Chemical)) in a 96 well plate. 100 μl of 2N NAOH was added to the mixture for subsequent saponification at 65° C. for 1 hour. The mixture was then acidified with 50 μl of formic acid followed by two consecutive hexane extractions. Hexane (500 μl) was added and the mixture thoroughly mixed by vortexing, followed by centrifugation at 4,000 rpm for 15 min. The hexane phase was transferred to a new 1 ml 96 well plate and the remaining aqueous layer was extracted with hexane. The organic extracts were combined and the solvent was removed by placing the plate under nitrogen gas at 55° C. 250 μl of 90% methanol was added to the plate followed by vortexing for 2 minutes. 200 μl of the samples were transferred to a new 96 well polypropylene plate. The samples were analyzed on a LC-MS/MS for the following PUFAs: arachidonic acid (AA), dihomo-gamma-linolenic acid (DGLA), with ALA-d14 as the internal standard. Description of the LC-MS/MS method: 5 μl of sample was injected onto a Poroshell 120 EC-C18 3.0×50 mm, 1.9 μm id column. […] The PUFA peak areas were quantified by using the SCIEX Analyst software. […] The relative decrease of the AA/DGLA ratio of the test compound administered group relative to the vehicle administered group was calculated and used as an index for the degree of D5D inhibition.
The results presented in Table 27 were obtained using certain compounds described herein in the in vivo protocol described above.

[3] = tested on: Diet-Induced Obese (DIO) mice; test: Assessment of D5D inhibitor in Diet-Induced Obese (DIO) mice; type: in vivo; conditions: for Blood glucose: day 52, 4-hour fasted; for Cholesterol / Insulin / LDL cholesterol / Triglycerides: day 52, plasma; for Fat mass / Lean mass: day 54, EchoMRI; for AA / DGLA: day 56, plasma; for Body weight / Liver weights / epididymal WAT / inguinal WAT: day 56
Description: Assessment of D5D) Inhibitor in Diet-Induced Obese (DIO) Mice
Thirty-six male C57BL/6J DIO mice (Jackson Laboratories, stock No.: 380050) fed high-fat diet (Research Diets, Inc., D12492) for 14 weeks. All animals were given free access to water and chow. Animals were acclimated to per os dosing for 3 days prior to the start of the experiment. Animals were randomized on body weight, fat mass, lean mass, and blood glucose concentrations in to 4 groups of 8 animals per group. Animals were daily dosed per os with either: vehicle (2% hydroxypropyl methyl cellulose, 1% Tween 80 in water), Example 1-68 at 30 mg/kg, Example 1-34 at 10 mg/kg, and Example 1-27 at 10 mg/kg, all compounds were formulated in 2% hydroxypropyl methylcellulose, 1% Tween 80 in water. […] On day 52, a 4-hour fasted blood collection was performed, blood glucose was immediately measured, and plasma samples were created from the remaining blood and used to measure cholesterol, triglycerides, LDL cholesterol, and insulin. On day 54, body composition (EchoMRI) was determined. On day 56 the animals were sacrificed, and plasma was collected for measurement of DGLA and AA concentrations. Liver, epididymal white adipose tissue and inguinal white adipose tissue weights were recorded. Data was analyzed using GraphPad Prism v. 7.04.
All compounds led to weight loss over the course of the experiment (Table 28) compared to vehicle controls. Consistently fat and lean mass was reduced, along with lower inguinal and epididymal white adipose tissue (WAT) weights at necropsy. Blood glucose and plasma insulin levels were both reduced by the FADS1 inhibitors, along with reductions in plasma cholesterol, LDL cholesterol and triglycerides. Evidence of target engagement was established by observing increases in plasma DGLA and decreases in plasma AA.

SMILES: N#Cc1ccn2c(=O)c(-c3cnn(CC(F)(F)C(F)(F)F)c3)c(C(F)(F)F)nc2c1 [Example 1-27, 4-oxo-3-(1-(2,2,3,3,3-pentafluoropropyl)-1H-pyrazol-4-yl)-2-(trifluoromethyl)-4H-pyrido[1,2-a]pyrimidine-8-carbonitrile]
- IC50 (Delta-5-Desaturase (D5D) [1]): 18.7 nM
- inhibition in vivo at 30 mg/kg (Delta-5-Desaturase (D5D) [2]): 78%
- Food consumption ([3]; day 0-2, 10 mg/kg daily per os): 2.5 ± 0.1 g/day
- Food consumption ([3]; day 50-52, 10 mg/kg daily per os): 3.1 ± 0.1 g/day
- Blood glucose ([3]; 10 mg/kg daily per os): 178.8 ± 7.5 mg/dL
- Cholesterol ([3]; 10 mg/kg daily per os): 191.3 ± 14.5 mg/dL
- Insulin ([3]; 10 mg/kg daily per os): 3.3 ± 1.2 ng/mL
- LDL cholesterol ([3]; 10 mg/kg daily per os): 104.6 ± 9.1 mg/dL
- Triglycerides ([3]; 10 mg/kg daily per os): 24.1 ± 1.2 mg/dL
- Fat mass ([3]; 10 mg/kg daily per os): 16.9 ± 0.5 g
- Lean mass ([3]; 10 mg/kg daily per os): 28.1 ± 0.5 g
- AA ([3]; 10 mg/kg daily per os): 60.8 ± 1.9 µg/mL
- DGLA ([3]; 10 mg/kg daily per os): 310.3 ± 13.7 µg/mL
- Body weight ([3]; 10 mg/kg daily per os): 45.7 ± 1.1 g
- Liver weights ([3]; 10 mg/kg daily per os): 2.8 ± 0.2 g
- epididymal WAT ([3]; 10 mg/kg daily per os): 1.8 ± 0.1 g
- inguinal WAT ([3]; 10 mg/kg daily per os): 1.9 ± 0.1 g

SMILES: COc1ccn2c(=O)c(-c3ccc(OCC(F)(F)F)cc3)c(C3CC3)nc2c1 [Example 1-62, 2-cyclopropyl-8-methoxy-3-(4-(2,2,2-trifluoroethoxy)phenyl)-4H-pyrido[1,2-a]pyrimidin-4-one]
- IC50 (Delta-5-Desaturase (D5D) [1]): 10.9 nM
- inhibition in vivo at 30 mg/kg (Delta-5-Desaturase (D5D) [2]): 56%

SMILES: COc1ccn2c(=O)c(-c3ccc(OCC(F)(F)F)c(F)c3)c(C(F)(F)F)nc2c1 [Example 1-48, 3-(3-fluoro-4-(2,2,2-trifluoroethoxy)phenyl)-8-methoxy-(trifluoromethyl)-4H-pyrido[1,2-a]pyrimidin-4-one]
- IC50 (Delta-5-Desaturase (D5D) [1]): 5.1 nM
- inhibition in vivo at 30 mg/kg (Delta-5-Desaturase (D5D) [2]): 66%

SMILES: COc1ccn2c(=O)c(-c3ccc(OCC4CC4(F)F)cc3)c(C(F)(F)F)nc2c1 (stereo not shown) [Example 1-4, 3-(4-((2,2-difluorocyclopropyl)methoxy)phenyl)-8-methoxy-2-(trifluoromethyl)-4H-pyrido[1,2-a]pyrimidin-4-one]
- IC50 (Delta-5-Desaturase (D5D) [1]): 6.6 nM
- inhibition in vivo at 30 mg/kg (Delta-5-Desaturase (D5D) [2]): 60%

SMILES: CN(C)c1ccn2c(=O)c(-c3cnn(CC(F)(F)C(F)(F)F)c3)c(C(F)(F)F)nc2c1 [Example 1-22, 8-(dimethylamino)-3-(1-(2,2,3,3,3-pentafluoropropyl)-1H-pyrazol-4-yl)-2-(trifluoromethyl)-4H-pyrido[1,2-a]pyrimidin-4-one]
- IC50 (Delta-5-Desaturase (D5D) [1]): 121 nM
- inhibition in vivo at 30 mg/kg (Delta-5-Desaturase (D5D) [2]): 59%

SMILES: COc1ccn2c(=O)c(-c3ccc(OCC(F)(F)F)cc3)c(C(F)(F)F)nc2n1 [Example 1-50, 8-methoxy-3-(4-(2,2,2-trifluoroethoxy)phenyl)-2-(trifluoromethyl)-4H-pyrimido[1,2-a]pyrimidin-4-one]
- IC50 (Delta-5-Desaturase (D5D) [1]): 16.8 nM
- inhibition in vivo at 30 mg/kg (Delta-5-Desaturase (D5D) [2]): 73%

Second part, led by results:

- IC50 (Delta-5-Desaturase (D5D) [1]): 11.6 nM
- inhibition in vivo at 30 mg/kg (Delta-5-Desaturase (D5D) [2]): 80%
SMILES: COc1ccn2c(=O)c(-c3cnn(CC(F)(F)C(F)(F)F)c3)c(C(F)(F)F)nc2c1 [Example 1-68, 8-methoxy-3-(1-(2,2,3,3,3-pentafluoropropyl)-1H-pyrazol-4-yl)-2-(trifluoromethyl)-4H-pyrido[1,2-a]pyrimidin-4-one]
- Food consumption ([3]; day 0-2, 30 mg/kg daily per os): 2.7 ± 0.1 g/day
- Food consumption ([3]; day 50-52, 30 mg/kg daily per os): 2.6 ± 0.1 g/day
- Blood glucose ([3]; 30 mg/kg daily per os): 146.6 ± 7.1 mg/dL
- Cholesterol ([3]; 30 mg/kg daily per os): 166.2 ± 7.8 mg/dL
- Insulin ([3]; 30 mg/kg daily per os): 1.1 ± 0.2 ng/mL
- LDL cholesterol ([3]; 30 mg/kg daily per os): 86.5 ± 12.5 mg/dL
- Triglycerides ([3]; 30 mg/kg daily per os): 14.5 ± 1.0 mg/dL
- Fat mass ([3]; 30 mg/kg daily per os): 13.3 ± 1.0 g
- Lean mass ([3]; 30 mg/kg daily per os): 26.7 ± 0.5 g
- AA ([3]; 30 mg/kg daily per os): 38.0 ± 1.6 µg/mL
- DGLA ([3]; 30 mg/kg daily per os): 258.4 ± 8.5 µg/mL
- Body weight ([3]; 30 mg/kg daily per os): 40.7 ± 1.5 g
- Liver weights ([3]; 30 mg/kg daily per os): 2.9 ± 0.2 g
- epididymal WAT ([3]; 30 mg/kg daily per os): 1.6 ± 0.1 g
- inguinal WAT ([3]; 30 mg/kg daily per os): 1.6 ± 0.2 g

- IC50 (Delta-5-Desaturase (D5D) [1]): 20.9 nM
- inhibition in vivo at 30 mg/kg (Delta-5-Desaturase (D5D) [2]): 71%
SMILES: COc1cc2nc(C(F)(F)F)c(-c3cnn(CC(F)(F)C(F)(F)F)c3)c(=O)n2cc1F [Example 33, 7-Fluoro-8-methoxy-3-[1-(2,2,3,3,3-pentafluoropropyl)-1H-pyrazol-4-yl]-2-(trifluoromethyl)-4H-pyrido[1,2-a]pyrimidin-4-one]

- IC50 (Delta-5-Desaturase (D5D) [1]): 27.5 nM
- inhibition in vivo at 30 mg/kg (Delta-5-Desaturase (D5D) [2]): 37%
SMILES: CCOc1ccn2c(=O)c(-c3ccc(OCC(F)(F)F)cc3)c(C(F)(F)F)nc2c1 [Example 11-3, 8-ethoxy-3-(4-(2,2,2-trifluoroethoxy)phenyl)-2-(trifluoromethyl)-4H-pyrido[1,2-a]pyrimidin-4-one]

- IC50 (Delta-5-Desaturase (D5D) [1]): 29.6 nM
- inhibition in vivo at 30 mg/kg (Delta-5-Desaturase (D5D) [2]): 77%
SMILES: COc1ccn2c(=O)c(-c3cnn(CCCC(F)(F)F)c3)c(C(F)(F)F)nc2c1 [Example 1-75, 8-methoxy-3-(1-(4,4,4-trifluorobutyl)-1H-pyrazol-4-yl)-2-(trifluoromethyl)-4H-pyrido[1,2-a]pyrimidin-4-one]

- IC50 (Delta-5-Desaturase (D5D) [1]): 68.4 nM
- inhibition in vivo at 30 mg/kg (Delta-5-Desaturase (D5D) [2]): 52%
SMILES: O=c1ccn2c(=O)c(-c3cnn(CC(F)(F)C(F)(F)F)c3)c(C(F)(F)F)nc2[nH]1 [Example 10-4, 7-(1-(2,2,3,3,3-pentafluoropropyl)-1H-pyrazol-4-yl)-8-(trifluoromethyl)-2H-pyrimido[1,2-a]pyrimidine-2,6(1H)-dione]

- IC50 (Delta-5-Desaturase (D5D) [1]): 9.4 nM
- inhibition in vivo at 30 mg/kg (Delta-5-Desaturase (D5D) [2]): 75%
SMILES: O=c1c(-c2ccc(OCC(F)(F)F)cc2)c(C(F)(F)F)nc2cc(CF)ccn12 [Example 13-4, 8-(fluoromethyl)-3-(4-(2,2,2-trifluoroethoxy)phenyl)-2-(trifluoromethyl)-4H-pyrido[1,2-a]pyrimidin-4-one]

- IC50 (Delta-5-Desaturase (D5D) [1]): 14.8 nM
- inhibition in vivo at 30 mg/kg (Delta-5-Desaturase (D5D) [2]): 51%
SMILES: Nc1ccn2c(=O)c(-c3cnn(CC(F)(F)C(F)(F)F)c3)c(C(F)(F)F)nc2c1 [Example 6-1, 8-Amino-3-(1-(2,2,3,3,3-pentafluoropropyl)-1H-pyrazol-4-yl)-2-(trifluoromethyl)-4H-pyrido[1,2-a]pyrimidin-4-one]

- IC50 (Delta-5-Desaturase (D5D) [1]): 12.5 nM
- inhibition in vivo at 30 mg/kg (Delta-5-Desaturase (D5D) [2]): 57%
SMILES: COc1ccn2c(=O)c(-c3ccc(OCC(F)(F)F)cc3)c(OC)nc2c1 [Example 1-80, 2,8-dimethoxy-3-(4-(2,2,2-trifluoroethoxy)phenyl)-4H-pyrido[1,2-a]pyrimidin-4-one]
